Reference: patent US20080161232A1, “C5a Receptor Antagonist” (JERINI AG, priority 2005, published 2008)
Positions of bridges follow the written chain, without caps; N, C: chain ends. Non-standard residues stand in square brackets, D forms with d. Residues, ends and D or L forms follow the SMILES beside them. *: point of attachment. Phe(3-Cl) = N[C@@H](Cc1cccc(Cl)c1)C(=O)O; Phe(2-Cl) = N[C@@H](Cc1ccccc1Cl)C(=O)O; Phe(4-F) = N[C@@H](Cc1ccc(F)cc1)C(=O)O; Hyp = O=C(O)[C@@H]1C[C@@H](O)CN1; d(hLeu) = CC(C)CC[C@@H](N)C(=O)O; dCha = N[C@H](CC1CCCCC1)C(=O)O; Chg = N[C@H](C(=O)O)C1CCCCC1; hLeu = CC(C)CC[C@H](N)C(=O)O; NMeS = CN[C@@H](CO)C(=O)O; Nle = CCCC[C@H](N)C(=O)O; Orn = NCCC[C@H](N)C(=O)O; Nva = CCC[C@H](N)C(=O)O; tBu = CC(C)(C)*

Biological target: T1, human C5aR(CD88) (Homo sapiens, UniProt P21730)
T1 construct: expressed in transfected cells; host or cells: rat basophilic leukemia cells (RBL)
T1 sequence (P21730 1-350): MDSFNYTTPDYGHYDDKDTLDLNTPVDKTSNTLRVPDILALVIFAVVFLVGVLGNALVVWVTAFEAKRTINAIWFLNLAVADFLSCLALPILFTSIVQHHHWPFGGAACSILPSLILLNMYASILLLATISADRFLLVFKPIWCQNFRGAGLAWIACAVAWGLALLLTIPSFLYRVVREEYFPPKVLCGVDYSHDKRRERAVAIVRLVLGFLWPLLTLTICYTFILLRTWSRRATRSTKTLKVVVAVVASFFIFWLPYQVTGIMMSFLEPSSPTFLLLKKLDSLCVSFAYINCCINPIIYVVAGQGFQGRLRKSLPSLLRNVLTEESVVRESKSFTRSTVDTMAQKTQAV
Assay: Determination of the IC50 value in an enzyme release assay (functional assay, antagonistic activity)
Format: cell-based
Settings: activity (group)

Q: How did the IC50 turn out when `CO[C@@H]1C[C@H]2C(=O)N[C@H](CCC(C)C)C(=O)N[C@@H](Cc3ccc(F)cc3)C(=O)N[C@@H](Cc3ccccc3)C(=O)NCCC[C@H](NC(=O)[C@@H](N)Cc3ccccc3)C(=O)N2C1` [Compound 355, H-Phe-[Orn-Hym-hle-Pff-Phe]] (H-F[Orn][Hyp](Me)[d(hLeu)][Phe(4-F)]F; lactam 2-C) was run?
A: 50 to 200 nM

Same assay, conditions: antagonistic activity; IC50 group in enzyme release assay, RBL cells expressing human C5aR(CD88); read-out: activity (group)

Q: `CCCC[C@@H]1NC(=O)[C@H](Cc2ccc(F)cc2)NC(=O)[C@@H](CCC(C)C)NC(=O)[C@@H]2C[C@@H](O)CN2C(=O)[C@@H](NC(=O)[C@@H](N)Cc2ccccc2)CCCCNC1=O` [Compound 353, H-Phe-[Lys-Hyp-hle-Pff-Nle]] (H-FK[Hyp][d(hLeu)][Phe(4-F)][Nle]; lactam 2-C) was tested. Which IC50 did it give?
A: 50 to 200 nM

Q: Which IC50 does the source give for `CCCC[C@@H]1NC(=O)[C@H](Cc2cccc(Cl)c2)NC(=O)[C@@H](CCC(C)C)NC(=O)[C@@H]2C[C@@H](OC)CN2C(=O)[C@@H](NC(=O)[C@@H](N)Cc2ccccc2)CCCNC1=O` [Compound 354, H-Phe-[Orn-Hym-hle-Mcf-Nle]] (H-F[Orn][Hyp](Me)[d(hLeu)][Phe(3-Cl)][Nle]; lactam 2-C) here?
A: 50 to 200 nM

Q: Which IC50 does the source give for `CCCC[C@@H]1NC(=O)[C@H](Cc2c[nH]c3ccccc23)NC(=O)[C@@H](CC2CCCCC2)NC(=O)[C@@H]2C[C@@H](O)CN2C(=O)[C@@H](NC(=O)[C@@H](N)Cc2ccccc2)CCCNC1=O` [Compound 356, H-Phe-[Orn-Hyp-cha-Trp-Nle]] (H-F[Orn][Hyp][dCha]W[Nle]; lactam 2-C) here?
A: 20 to 50 nM

Q: For `N[C@@H](Cc1ccccc1)C(=O)N[C@H]1CCCNC(=O)[C@H](Cc2ccccc2)NC(=O)[C@H](Cc2c[nH]c3ccccc23)NC(=O)[C@@H](CC2CCCCC2)NC(=O)[C@@H]2C[C@@H](O)CN2C1=O` [Compound 357, H-Phe-[Orn-Hyp-cha-Trp-Phe]] (H-F[Orn][Hyp][dCha]WF; lactam 2-C), which IC50 is on record?
A: 20 to 50 nM

Q: For `CCCC[C@@H]1NC(=O)[C@H](Cc2ccc(F)cc2)NC(=O)[C@@H](CSC(C)(C)C)NC(=O)[C@@H]2C[C@@H](O)CN2C(=O)[C@@H](NC(=O)[C@@H](N)Cc2ccccc2)CCCNC1=O` [Compound 358, H-Phe-[Orn-Hyp-ctb-Pff-Nle]] (H-F[Orn][Hyp][dC](tBu)[Phe(4-F)][Nle]; lactam 2-C), which IC50 is on record?
A: 50 to 200 nM

Q: For `CCCC[C@@H]1NC(=O)[C@H](Cc2c[nH]c3ccccc23)NC(=O)[C@@H](CSC(C)(C)C)NC(=O)[C@@H]2C[C@@H](O)CN2C(=O)[C@@H](NC(=O)[C@@H](N)Cc2ccccc2)CCCNC1=O` [Compound 359, H-Phe-[Orn-Hyp-ctb-Trp-Nle]] (H-F[Orn][Hyp][dC](tBu)W[Nle]; lactam 2-C), which IC50 is on record?
A: 20 to 50 nM

Q: Which IC50 does the source give for `CC(C)(C)SC[C@H]1NC(=O)[C@@H]2C[C@@H](O)CN2C(=O)[C@@H](NC(=O)[C@@H](N)Cc2ccccc2)CCCNC(=O)[C@H](Cc2ccccc2)NC(=O)[C@H](Cc2c[nH]c3ccccc23)NC1=O` [Compound 360, H-Phe-[Orn-Hyp-ctb-Trp-Phe]] (H-F[Orn][Hyp][dC](tBu)WF; lactam 2-C) here?
A: 20 to 50 nM

Q: For `CC(C)CC[C@H]1NC(=O)[C@@H]2C[C@@H](O)CN2C(=O)[C@@H](NC(=O)[C@@H](N)Cc2ccccc2)CCCNC(=O)[C@H](CC(C)C)NC(=O)[C@H](Cc2cccc(Cl)c2)NC1=O` [Compound 361, H-Phe-[Orn-Hyp-hle-Mcf-Leu]] (H-F[Orn][Hyp][d(hLeu)][Phe(3-Cl)]L; lactam 2-C), which IC50 is on record?
A: 50 to 200 nM

Q: `CC(C)CC[C@H]1NC(=O)[C@@H]2C[C@@H](O)CN2C(=O)[C@@H](NC(=O)[C@@H](N)Cc2ccccc2)CCCNC(=O)[C@H](C2CCCCC2)NC(=O)[C@H](Cc2ccc(F)cc2)NC1=O` [Compound 362, H-Phe-[Orn-Hyp-hle-Pff-Chg]] (H-F[Orn][Hyp][d(hLeu)][Phe(4-F)][Chg]; lactam 2-C) was tested. Which IC50 did it give?
A: 50 to 200 nM

Q: Which IC50 does the source give for `CC(C)CC[C@@H]1NC(=O)[C@H](Cc2ccc(F)cc2)NC(=O)[C@@H](CCC(C)C)NC(=O)[C@@H]2C[C@@H](O)CN2C(=O)[C@@H](NC(=O)[C@@H](N)Cc2ccccc2)CCCNC1=O` [Compound 363, H-Phe-[Orn-Hyp-hle-Pff-Hle]] (H-F[Orn][Hyp][d(hLeu)][Phe(4-F)][hLeu]; lactam 2-C) here?
A: 50 to 200 nM

Q: How did the IC50 turn out when `CC(C)CC[C@H]1NC(=O)[C@@H]2C[C@@H](O)CN2C(=O)[C@@H](NC(=O)[C@@H](N)Cc2ccccc2)CCCNC(=O)[C@H](CC(C)C)NC(=O)[C@H](Cc2ccc(F)cc2)NC1=O` [Compound 364, H-Phe-[Orn-Hyp-hle-Pff-Leu]] (H-F[Orn][Hyp][d(hLeu)][Phe(4-F)]L; lactam 2-C) was run?
A: 50 to 200 nM

Q: How did the IC50 turn out when `CCCC[C@@H]1NC(=O)[C@H](Cc2ccc(F)cc2)NC(=O)[C@@H](CCC(C)C)NC(=O)[C@@H]2C[C@@H](O)CN2C(=O)[C@@H](NC(=O)[C@@H](N)Cc2ccccc2)CCCNC1=O` [Compound 365, H-Phe-[Orn-Hyp-hle-Pff-Nle]] (H-F[Orn][Hyp][d(hLeu)][Phe(4-F)][Nle]; lactam 2-C) was run?
A: 50 to 200 nM

Q: For `CC(C)CC[C@H]1NC(=O)[C@@H]2C[C@@H](O)CN2C(=O)[C@@H](NC(=O)[C@@H](N)Cc2ccccc2)CCCNC(=O)[C@H](Cc2ccccc2)NC(=O)[C@H](Cc2ccc(F)cc2)NC1=O` [Compound 366, H-Phe-[Orn-Hyp-hle-Pff-Phe]] (H-F[Orn][Hyp][d(hLeu)][Phe(4-F)]F; lactam 2-C), which IC50 is on record?
A: 50 to 200 nM

Q: `CC(C)CC[C@@H]1NC(=O)[C@H](Cc2c[nH]c3ccccc23)NC(=O)[C@@H](CCC(C)C)NC(=O)[C@@H]2C[C@@H](O)CN2C(=O)[C@@H](NC(=O)[C@@H](N)Cc2ccccc2)CCCNC1=O` [Compound 367, H-Phe-[Orn-Hyp-hle-Trp-Hle]] (H-F[Orn][Hyp][d(hLeu)]W[hLeu]; lactam 2-C) was tested. Which IC50 did it give?
A: 50 to 200 nM

Q: For `CC(C)CC[C@H]1NC(=O)[C@@H]2C[C@@H](O)CN2C(=O)[C@@H](NC(=O)[C@@H](N)Cc2ccccc2)CCCNC(=O)[C@H](CC(C)C)NC(=O)[C@H](Cc2c[nH]c3ccccc23)NC1=O` [Compound 368, H-Phe-[Orn-Hyp-hle-Trp-Leu]] (H-F[Orn][Hyp][d(hLeu)]WL; lactam 2-C), which IC50 is on record?
A: 20 to 50 nM

Q: Which IC50 does the source give for `CCCC[C@@H]1NC(=O)[C@H](Cc2c[nH]c3ccccc23)NC(=O)[C@@H](CCC(C)C)NC(=O)[C@@H]2C[C@@H](O)CN2C(=O)[C@@H](NC(=O)[C@@H](N)Cc2ccccc2)CCCNC1=O` [Compound 369, H-Phe-[Orn-Hyp-hle-Trp-Nle]] (H-F[Orn][Hyp][d(hLeu)]W[Nle]; lactam 2-C) here?
A: 20 to 50 nM

Q: With `CCC[C@@H]1NC(=O)[C@H](Cc2c[nH]c3ccccc23)NC(=O)[C@@H](CCC(C)C)NC(=O)[C@@H]2C[C@@H](O)CN2C(=O)[C@@H](NC(=O)[C@@H](N)Cc2ccccc2)CCCNC1=O` [Compound 370, H-Phe-[Orn-Hyp-hle-Trp-Nva]] (H-F[Orn][Hyp][d(hLeu)]W[Nva]; lactam 2-C) as the compound, how does the IC50 read?
A: 50 to 200 nM

Q: `CC(C)CC[C@H]1NC(=O)[C@@H]2C[C@@H](O)CN2C(=O)[C@@H](NC(=O)[C@@H](N)Cc2ccccc2)CCCNC(=O)[C@H](Cc2ccccc2)NC(=O)[C@H](Cc2c[nH]c3ccccc23)NC1=O` [Compound 371, H-Phe-[Orn-Hyp-hle-Trp-Phe]] (H-F[Orn][Hyp][d(hLeu)]WF; lactam 2-C) was tested. Which IC50 did it give?
A: 20 to 50 nM

Q: For `CCCC[C@@H]1NC(=O)[C@H](Cc2c[nH]c3ccccc23)NC(=O)[C@@H](CC2CCCCC2)NC(=O)[C@H](CO)N(C)C(=O)[C@@H](NC(=O)[C@@H](N)Cc2ccccc2)CCCNC1=O` [Compound 372, H-Phe-[Orn-NMS-cha-Trp-Nle]] (H-F[Orn][NMeS][dCha]W[Nle]; lactam 2-C), which IC50 is on record?
A: 50 to 200 nM

Q: With `CC(C)CC[C@H]1NC(=O)[C@H](CO)N(C)C(=O)[C@@H](NC(=O)[C@@H](N)Cc2ccccc2)CCCNC(=O)[C@H](Cc2ccccc2)NC(=O)[C@H](Cc2ccc(F)cc2)NC1=O` [Compound 373, H-Phe-[Orn-NMS-hle-Pff-Phe]] (H-F[Orn][NMeS][d(hLeu)][Phe(4-F)]F; lactam 2-C) as the compound, how does the IC50 read?
A: 50 to 200 nM

Q: With `CCCC[C@@H]1NC(=O)[C@H](Cc2ccc(F)cc2)NC(=O)[C@@H](CC2CCCCC2)NC(=O)[C@@H]2CCCN2C(=O)[C@@H](NC(=O)[C@@H](N)Cc2ccccc2)CCCNC1=O` [Compound 374, H-Phe-[Orn-Pro-cha-Pff-Nle]] (H-F[Orn]P[dCha][Phe(4-F)][Nle]; lactam 2-C) as the compound, how does the IC50 read?
A: 50 to 200 nM

Q: For `N[C@@H](Cc1ccccc1)C(=O)N[C@H]1CCCNC(=O)[C@H](Cc2ccccc2)NC(=O)[C@H](Cc2ccc(F)cc2)NC(=O)[C@@H](CC2CCCCC2)NC(=O)[C@@H]2CCCN2C1=O` [Compound 375, H-Phe-[Orn-Pro-cha-Pff-Phe]] (H-F[Orn]P[dCha][Phe(4-F)]F; lactam 2-C), which IC50 is on record?
A: 50 to 200 nM

Q: For `CCCC[C@@H]1NC(=O)[C@H](Cc2c[nH]c3ccccc23)NC(=O)[C@@H](CC2CCCCC2)NC(=O)[C@@H]2CCCN2C(=O)[C@@H](NC(=O)[C@@H](N)Cc2ccccc2)CCCNC1=O` [Compound 376, H-Phe-[Orn-Pro-cha-Trp-Nle]] (H-F[Orn]P[dCha]W[Nle]; lactam 2-C), which IC50 is on record?
A: 50 to 200 nM

Q: How did the IC50 turn out when `CC(C)CC[C@H]1NC(=O)[C@@H]2CCCN2C(=O)[C@@H](NC(=O)[C@@H](N)Cc2ccccc2)CCCNC(=O)[C@H](Cc2ccccc2)NC(=O)[C@H](Cc2cccc(Cl)c2)NC1=O` [Compound 377, H-Phe-[Orn-Pro-hle-Mcf-Phe]] (H-F[Orn]P[d(hLeu)][Phe(3-Cl)]F; lactam 2-C) was run?
A: 20 to 50 nM

Q: With `CC(C)CC[C@H]1NC(=O)[C@@H]2CCCN2C(=O)[C@@H](NC(=O)[C@@H](N)Cc2ccccc2)CCCNC(=O)[C@H](Cc2ccccc2)NC(=O)[C@H](Cc2ccccc2Cl)NC1=O` [Compound 378, H-Phe-[Orn-Pro-hle-Ocf-Phe]] (H-F[Orn]P[d(hLeu)][Phe(2-Cl)]F; lactam 2-C) as the compound, how does the IC50 read?
A: 50 to 200 nM

Q: Which IC50 does the source give for `CCCC[C@@H]1NC(=O)[C@H](Cc2ccc(F)cc2)NC(=O)[C@@H](CCC(C)C)NC(=O)[C@@H]2CCCN2C(=O)[C@@H](NC(=O)[C@@H](N)Cc2ccccc2)CCCNC1=O` [Compound 379, H-Phe-[Orn-Pro-hle-Pff-Nle]] (H-F[Orn]P[d(hLeu)][Phe(4-F)][Nle]; lactam 2-C) here?
A: 50 to 200 nM
